The values below come from patent US12473303B2, “4-[[(7-aminopyrazolo[1,5-a]pyrimidin-5-yl)amino methyl]piperidin-3-ol compounds and their therapeutic use” (CARRICK THERAPEUTICS LIMITED, priority 2019, dated 2025).

Read-outs that look alike come from different tables or passages of the source.

In assay [1] the test system is A673 cells. The experiment in a line: Cellular potency in A673 cells. Format: cell-based. As to conditions: for IC50: Homo sapiens, A673, Table 3, A673 cells; for Ratio of Biochemical Potency: Cellular Potency: Table 3, ratio >0.9 is an indicator of Cyclin K degradation.
Assay [2] addresses Human CDK7/CycH/MAT1 (Homo sapiens (Human), UniProt P50613). The experiment in a line: Radiometric protein kinase assay (33PanQinase Activity Assay), CDK7. In kind it is biochemical. As to conditions: Table 1; ATP 3 μM. Here is the method:
(§1) A radiometric protein kinase assay (^33PanQinase® Activity Assay) was used for measuring the kinase activity of the two protein kinases (CDK12/CDK7). All kinase assays were performed in 96-well FlashPlates™ from PerkinElmer (Boston, MA, USA) in a 50 μL reaction volume.
(§2) The reaction cocktail was pipetted in four steps in the following order: • 20 μL of assay buffer (standard buffer) • 5 μL of ATP solution (in H2O) • 5 μL of test compound (in 10% DMSO) • 10 μL of substrate/10 μL of enzyme solution (premixed)
(§3) The reaction mixture was incubated at 30° C. for 60 min and then stopped by the addition of 2% (v/v) H3PO4. Plates were aspirated and washed two times with 200 μL 0.9% (w/v) NaCl. Incorporation of ^33Pi was determined with a microplate scintillation count (Microbeta, Wallac).
(§4) The fitting method used was a least-squares fit.

Assay [3] deals with Human CDK12 wt/CycK (Homo sapiens (Human), UniProt Q9NYV4). The experiment in a line: Radiometric protein kinase assay (33PanQinase Activity Assay), CDK12. The following applies: for CDK7/CDK12: ratio greater than 1 indicated selectivity for CDK12. Format: biochemical. Here is the method:
as §1, §2, §3, §4

[4] abbreviates: Table 1, ATP 0.3 μM, read-out: CDK12 IC50.
[5] abbreviates: Table 3, CDK12 kinase activity, read-out: Biochemical Potency IC50.

One may read the IC50 as the point on the concentration scale where inhibition reaches its midpoint.

Chain of Human CDK12 wt/CycK (Q9NYV4 whole entry): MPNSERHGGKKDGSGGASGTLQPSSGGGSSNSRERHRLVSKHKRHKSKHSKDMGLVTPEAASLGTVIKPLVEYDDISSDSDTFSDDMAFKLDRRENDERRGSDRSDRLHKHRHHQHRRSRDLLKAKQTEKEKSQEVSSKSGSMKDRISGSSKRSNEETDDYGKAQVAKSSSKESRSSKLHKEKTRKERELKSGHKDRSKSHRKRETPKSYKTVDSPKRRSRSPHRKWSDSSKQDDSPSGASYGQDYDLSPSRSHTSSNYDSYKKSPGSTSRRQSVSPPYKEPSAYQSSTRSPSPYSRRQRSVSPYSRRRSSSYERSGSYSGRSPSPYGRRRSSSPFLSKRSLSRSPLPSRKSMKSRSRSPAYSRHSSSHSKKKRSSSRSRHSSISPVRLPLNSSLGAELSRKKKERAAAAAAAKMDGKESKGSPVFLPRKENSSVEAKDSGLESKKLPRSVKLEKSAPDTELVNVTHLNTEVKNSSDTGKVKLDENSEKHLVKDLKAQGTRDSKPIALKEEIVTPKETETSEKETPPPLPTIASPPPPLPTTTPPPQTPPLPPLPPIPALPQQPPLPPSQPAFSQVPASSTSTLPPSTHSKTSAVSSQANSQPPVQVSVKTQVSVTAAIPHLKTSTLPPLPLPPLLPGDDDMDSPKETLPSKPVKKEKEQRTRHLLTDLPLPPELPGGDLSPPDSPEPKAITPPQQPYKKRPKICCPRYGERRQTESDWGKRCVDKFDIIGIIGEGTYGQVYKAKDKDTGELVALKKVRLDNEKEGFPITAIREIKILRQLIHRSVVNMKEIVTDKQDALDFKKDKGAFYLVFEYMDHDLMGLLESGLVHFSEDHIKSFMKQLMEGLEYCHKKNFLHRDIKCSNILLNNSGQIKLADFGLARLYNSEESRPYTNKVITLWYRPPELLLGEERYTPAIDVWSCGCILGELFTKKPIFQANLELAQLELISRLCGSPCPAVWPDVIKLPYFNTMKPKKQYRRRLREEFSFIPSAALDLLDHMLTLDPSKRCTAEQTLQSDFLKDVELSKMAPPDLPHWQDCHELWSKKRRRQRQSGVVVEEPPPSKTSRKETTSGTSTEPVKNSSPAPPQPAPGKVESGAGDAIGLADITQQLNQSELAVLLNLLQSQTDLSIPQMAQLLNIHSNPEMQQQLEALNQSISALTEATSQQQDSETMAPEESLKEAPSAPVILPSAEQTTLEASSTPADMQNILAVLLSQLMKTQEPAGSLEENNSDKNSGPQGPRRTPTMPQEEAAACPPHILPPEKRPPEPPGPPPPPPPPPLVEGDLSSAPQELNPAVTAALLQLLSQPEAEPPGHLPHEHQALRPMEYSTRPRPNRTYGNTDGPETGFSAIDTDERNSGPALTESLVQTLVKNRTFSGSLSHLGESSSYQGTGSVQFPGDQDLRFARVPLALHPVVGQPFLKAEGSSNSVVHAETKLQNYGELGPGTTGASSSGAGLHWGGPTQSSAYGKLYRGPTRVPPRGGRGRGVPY
Chain of Human CDK12 wt/CycK (O75909 whole entry partner): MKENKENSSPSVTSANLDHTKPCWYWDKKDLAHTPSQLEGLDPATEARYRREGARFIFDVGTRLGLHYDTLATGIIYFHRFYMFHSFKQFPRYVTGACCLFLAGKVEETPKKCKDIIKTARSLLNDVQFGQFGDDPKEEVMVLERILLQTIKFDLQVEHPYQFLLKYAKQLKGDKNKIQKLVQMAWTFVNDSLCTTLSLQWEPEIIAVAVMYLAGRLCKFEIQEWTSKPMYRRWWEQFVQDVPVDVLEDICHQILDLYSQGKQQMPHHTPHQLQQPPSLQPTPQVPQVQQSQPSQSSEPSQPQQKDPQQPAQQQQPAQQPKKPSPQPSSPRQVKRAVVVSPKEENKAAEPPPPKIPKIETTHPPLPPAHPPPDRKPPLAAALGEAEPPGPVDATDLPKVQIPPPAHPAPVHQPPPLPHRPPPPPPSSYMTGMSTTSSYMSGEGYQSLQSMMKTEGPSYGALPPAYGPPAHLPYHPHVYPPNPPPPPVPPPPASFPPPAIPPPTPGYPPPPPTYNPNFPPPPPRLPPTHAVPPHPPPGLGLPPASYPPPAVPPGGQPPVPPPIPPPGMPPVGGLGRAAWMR
Chain of Human CDK7/CycH/MAT1 (P50613 whole entry): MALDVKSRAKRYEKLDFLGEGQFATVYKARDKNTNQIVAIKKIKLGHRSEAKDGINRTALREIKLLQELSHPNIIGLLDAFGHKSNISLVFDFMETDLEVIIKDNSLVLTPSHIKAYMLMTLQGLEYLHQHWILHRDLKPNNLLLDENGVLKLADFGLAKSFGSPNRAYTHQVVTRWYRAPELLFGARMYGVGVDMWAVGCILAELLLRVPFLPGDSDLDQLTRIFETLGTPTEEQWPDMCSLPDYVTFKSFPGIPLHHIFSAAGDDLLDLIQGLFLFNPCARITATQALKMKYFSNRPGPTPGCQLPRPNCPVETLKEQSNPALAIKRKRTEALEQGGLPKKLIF
Chain of Human CDK7/CycH/MAT1 (P51946 whole entry partner): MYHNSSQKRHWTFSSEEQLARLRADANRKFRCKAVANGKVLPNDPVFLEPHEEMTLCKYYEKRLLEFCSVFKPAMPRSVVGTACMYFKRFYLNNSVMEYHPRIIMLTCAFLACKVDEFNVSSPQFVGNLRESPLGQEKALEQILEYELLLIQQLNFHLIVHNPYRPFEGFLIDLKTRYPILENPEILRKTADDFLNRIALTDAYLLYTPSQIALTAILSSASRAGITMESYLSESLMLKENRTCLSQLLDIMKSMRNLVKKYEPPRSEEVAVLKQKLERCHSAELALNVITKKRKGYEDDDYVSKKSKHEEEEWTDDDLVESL
Chain of Human CDK7/CycH/MAT1 (P51948 whole entry partner): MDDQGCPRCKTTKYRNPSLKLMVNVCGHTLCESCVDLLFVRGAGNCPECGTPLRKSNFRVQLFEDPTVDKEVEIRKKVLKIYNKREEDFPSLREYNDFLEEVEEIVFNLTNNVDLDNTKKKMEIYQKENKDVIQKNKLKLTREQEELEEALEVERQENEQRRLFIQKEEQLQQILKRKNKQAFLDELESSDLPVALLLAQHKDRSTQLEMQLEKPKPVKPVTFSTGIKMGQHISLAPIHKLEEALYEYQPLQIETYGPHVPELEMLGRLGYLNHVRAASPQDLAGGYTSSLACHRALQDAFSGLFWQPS

As for `Cc1cccc2ncc(CNc3cc(NC[C@H]4CCNC[C@@H]4O)nc4c(C(C)C)cnn34)n12` [H-APPAMP-001, (3R,4R)-4-(((3-isopropyl-7-(((5-methylimidazo[1,2-a]pyridin-3-yl)methyl)amino)pyrazolo[1,5-a]pyrimidin-5-yl)amino)methyl)piperidin-3-ol], the half-inhibitory concentration (IC50) in assay [1] was 123 nM; in assay [2], 436 nM; in assay [3] (setting [4]), 38 nM; in assay [3] (setting [5]), 38 nM. Besides, the “Ratio of Biochemical Potency: Cellular Potency” value (from here on “Ratio of Biochemical Potency”) in assay [1] is given as 0.3. For the same compound, the CDK7/CDK12 in assay [3] (Table 1) amounted to 11.5.
`CC(C)c1cnn2c(NCc3cn4cccnc4n3)cc(NC[C@H]3CCNC[C@@H]3O)nc12` [H-APPAMP-002, (3R,4R)-4-(((7-((imidazo[1,2-a]pyrimidin-2-ylmethyl)amino)-3-isopropylpyrazolo[1,5-a]pyrimidin-5-yl)amino)methyl)piperidin-3-ol]: the IC50 in assay [1] is 716 nM; in assay [2], 704 nM; in assay [3] (setting [4]), 71.5 nM; in assay [3] (setting [5]) it was 71 nM. Also, the “Ratio of Biochemical Potency” value in assay [1] was determined as 0.1. Also, in assay [3] (Table 1), the CDK7/CDK12 is recorded as 9.85.
Consider `CC(C)c1cnn2c(NCc3cn4ccccc4n3)cc(NC[C@H]3CCNC[C@@H]3O)nc12` [H-APPAMP-003, (3R,4R)-4-(((7-((imidazo[1,2-a]pyridin-2-ylmethyl)amino)-3-isopropylpyrazolo[1,5-a]pyrimidin-5-yl)amino)methyl)piperidin-3-ol], for which the IC50 in assay [1] stood at 8 nM; in assay [2], 411 nM; in assay [3] (setting [4]), 50.2 nM; in assay [3] (setting [5]) it was 50 nM. Also, the “Ratio of Biochemical Potency” value in assay [1] amounted to 6.2. The CDK7/CDK12 in assay [3] (Table 1) was 8.19.
For the compound `CC(C)c1cnn2c(NCc3nc4ccccc4[nH]3)cc(NC[C@H]3CCNC[C@@H]3O)nc12` [H-APPAMP-005, (3R,4R)-4-(((7-(((1H-benzo[d]imidazol-2-yl)methyl)amino)-3-isopropylpyrazolo[1,5-a]pyrimidin-5-yl)amino)methyl)piperidin-3-ol], the half-inhibitory concentration (IC50) in assay [1] was found to be 47 nM; in assay [2] it was 343 nM; in assay [3] (setting [4]), 65 nM; in assay [3] (setting [5]), 65 nM. In addition, in assay [1], the “Ratio of Biochemical Potency” value is 1.4. Further, the CDK7/CDK12 in assay [3] (Table 1) worked out at 5.28.
Turning to `CC(C)c1cnn2c(NCc3ccc4c(c3)ncn4C)cc(NC[C@H]3CCNC[C@@H]3O)nc12` [H-APPAMP-006, (3R,4R)-4-(((3-isopropyl-7-(((1-methyl-1H-benzo[d]imidazol-5-yl)methyl)amino)pyrazolo[1,5-a]pyrimidin-5-yl)amino)methyl)piperidin-3-ol], the IC50 is 52 nM in assay [1], 127 nM in assay [2], 26.9 nM in assay [3] (setting [4]) and 27 nM in assay [3] (setting [5]). The “Ratio of Biochemical Potency” value in assay [1] was 0.5. Further, the CDK7/CDK12 in assay [3] (Table 1) came out at 4.72.
On to `Cc1csc2nc(CNc3cc(NC[C@H]4CCNC[C@@H]4O)nc4c(C(C)C)cnn34)cn12` [H-APPAMP-007, (3R,4R)-4-[[[3-isopropyl-7-[(3-methylimidazo[2,1-b]thiazol-6-yl)methylamino]pyrazolo[1,5-a]pyrimidin-5-yl]amino]methyl]piperidin-3-ol], for which the IC50 is 27 nM in assay [1], 158 nM in assay [2], 20 nM in assay [3] (setting [4]) and 20 nM in assay [3] (setting [5]). Further, in assay [1], the “Ratio of Biochemical Potency” value is 0.7. In addition, in assay [3] (Table 1), the CDK7/CDK12 came out at 7.90.
On to `Cc1ccn2cc(CNc3cc(NC[C@H]4CCNC[C@@H]4O)nc4c(C(C)C)cnn34)nc2c1` [H-APPAMP-009, (3R,4R)-4-(((3-isopropyl-7-(((7-methylimidazo[1,2-a]pyridin-2-yl)methyl)amino)pyrazolo[1,5-a]pyrimidin-5-yl)amino)methyl)piperidin-3-ol], for which the IC50 in assay [1] worked out at 14.9 nM; in assay [2], 123 nM; in assay [3] (setting [4]), 38 nM; in assay [3] (setting [5]) it was 38 nM. The “Ratio of Biochemical Potency” value in assay [1] is given as 2.6. The CDK7/CDK12 in assay [3] (Table 1) is on record as 3.2.
In the case of `Cc1cccc2nc(CNc3cc(NC[C@H]4CCNC[C@@H]4O)nc4c(C(C)C)cnn34)cn12` [H-APPAMP-010, (3R,4R)-4-(((3-isopropyl-7-(((5-methylimidazo[1,2-a]pyridin-2-yl)methyl)amino)pyrazolo[1,5-a]pyrimidin-5-yl)amino)methyl)piperidin-3-ol], the concentration for half-maximal inhibition (IC50) in assay [1] was 4.3 nM; in assay [2], 238 nM; in assay [3] (setting [4]), 40 nM; in assay [3] (setting [5]), 40 nM. The “Ratio of Biochemical Potency” value in assay [1] amounted to 9.3. Besides, the CDK7/CDK12 in assay [3] (Table 1) amounted to 6.0.
Regarding `CC(C)c1cnn2c(NCc3cn4cc(F)ccc4n3)cc(NC[C@H]3CCNC[C@@H]3O)nc12` [H-APPAMP-011, (3R,4R)-4-(((7-(((6-fluoroimidazo[1,2-a]pyridin-2-yl)methyl)amino)-3-isopropylpyrazolo[1,5-a]pyrimidin-5-yl)amino)methyl)piperidin-3-ol], the IC50 in assay [1] was 6.3 nM; in assay [2], 168 nM; in assay [3] (setting [4]) it was 33 nM; in assay [3] (setting [5]), 33 nM. For the same compound, the “Ratio of Biochemical Potency” value in assay [1] was 5.2. In addition, the CDK7/CDK12 in assay [3] (Table 1) was found to be 5.1.
In the case of `CC(C)c1cnn2c(NCc3cn4cc(Cl)ccc4n3)cc(NC[C@H]3CCNC[C@@H]3O)nc12` [H-APPAMP-012, (3R,4R)-4-(((7-(((6-chloroimidazo[1,2-a]pyridin-2-yl)methyl)amino)-3-isopropylpyrazolo[1,5-a]pyrimidin-5-yl)amino)methyl)piperidin-3-ol], the half-maximal inhibitory concentration (IC50) amounted to 21.8 nM in assay [1], 214 nM in assay [2], 26 nM in assay [3] (setting [4]) and 26 nM in assay [3] (setting [5]). Also, the “Ratio of Biochemical Potency” value in assay [1] was 1.2. For the same compound, in assay [3] (Table 1), the CDK7/CDK12 turned out to be 8.2.
Take `CC(C)c1cnn2c(NCc3cn4cccc(C5CC5)c4n3)cc(NC[C@H]3CCNC[C@@H]3O)nc12` [H-APPAMP-013, (3R,4R)-4-(((7-(((8-cyclopropylimidazo[1,2-a]pyridin-2-yl)methyl)amino)-3-isopropylpyrazolo[1,5-a]pyrimidin-5-yl)amino)methyl)piperidin-3-ol]: the half-maximal inhibitory concentration (IC50) in assay [1] worked out at 12.2 nM; in assay [2] it was 226 nM; in assay [3] (setting [4]) it was 70 nM; in assay [3] (setting [5]) it was 70 nM. Also, in assay [1], the “Ratio of Biochemical Potency” value amounted to 5.7. For the same compound, the CDK7/CDK12 in assay [3] (Table 1) was 3.2.
For `CC(C)c1cnn2c(NCc3ccc4ccccc4n3)cc(NC[C@H]3CCNC[C@@H]3O)nc12` [H-APPAMP-014, (3R,4R)-4-(((3-isopropyl-7-((quinolin-2-ylmethyl)amino)pyrazolo[1,5-a]pyrimidin-5-yl)amino)methyl)piperidin-3-ol], the IC50 in assay [1] is 7.3 nM; in assay [2] it was 19 nM; in assay [3] (setting [4]), 75 nM; in assay [3] (setting [5]), 75 nM. Also, in assay [1], the “Ratio of Biochemical Potency” value amounted to 10. Also, the CDK7/CDK12 in assay [3] (Table 1) came out at 0.3.
For `CC(C)c1cnn2c(NCc3ccccc3)cc(NC[C@H]3CCNC[C@@H]3O)nc12` [REF-001, reference compound], the concentration for half-maximal inhibition (IC50) in assay [3] (setting [4]) is 3200 nM.
Take `CC(C)c1cnn2c(NCc3ccncc3)cc(NC[C@H]3CCNC[C@@H]3O)nc12` [REF-002, reference compound]: the 50% inhibitory concentration (IC50) stood at 125 nM in assay [2] and 253 nM in assay [3] (setting [4]).
On to `CC(C)c1cnn2c(Nc3csc4ccccc34)cc(NC[C@H]3CCNC[C@@H]3O)nc12` [REF-003, reference compound], for which the IC50 was 11 nM in assay [2] and 597 nM in assay [3] (setting [4]).
